Experiments:
hERG channel = hERG channel (Homo sapiens (Human), UniProt Q12809); assay: Test 6-1: inhibitory activity for hERG channel (auto patch clamp, Qpatch); format: cell-based; details: whole cell auto patch clamp, hERG-CHO cells; read-out: hERG inhibition IC50
Summary of the method: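 Whole-cell patch clamp on an automated system using CHO cells stably expressing human hERG (IKr); 15 s pulse interval. Four increasing compound concentrations applied cumulatively; mean peak tail current from last 3 stimulations per concentration used. IC50 from inhibition versus pre-compound current, fitted by Hill equation.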

[1] = Test 4: metabolic stability test in human hepatic microsome; format: in vitro ADME; details: 0.1 mg/mL microsome, 0.1 μmol/L compound, 37° C., 30 minutes
Summary of the method: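 LC-MS quantified remaining parent after 30 min, 37° C, in pH 7.4 25 mmol/L phosphate containing 0.1 mg/mL human hepatic microsomes, 3.2 mmol/L NADPH and 0.1 μmol/L test compound. Value given as −LN(residual ratio)/30/0.1, mL/min/mg protein.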

human D2 receptor = human D2 receptor (Homo sapiens (Human), UniProt P14416); assay: Test 1: binding activity for human D2 receptor ([3H]Spiperone, CHO cell membrane fraction); details: human D2 receptor, [3H]Spiperone
Summary of the method: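 Compound displacement of [3H]ketanserin at 5-HT2A or [3H]spiperone at D2 was measured in CHO membrane fractions after 60 min at room temperature, with filtration and scintillation counting. IC50 was converted to Ki by Cheng–Prusoff using ligand concentration and Kd from saturation binding.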

human 5-HT1A receptor [2] = target: T1, human 5-HT1A receptor (Homo sapiens (Human), UniProt P08908); assay: Test 1: binding activity for human 5-HT1A receptor ([3H]8-OH-DPAT, CHO cell membrane fraction)
Summary of the method: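 Membranes incubated with [3H]8-OH-DPAT and compound for 60 min at room temperature, then filtered on polyethylenimine-coated glass-fibre plates and counted by liquid scintillation. IC50 from Hill analysis; Ki = IC50/(1+S/Kd), Kd from saturation binding on the same membranes.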

human 5-HT1A receptor [3] = target: T1, human 5-HT1A receptor; assay: Test 2: agonist activity for human 5-HT1A receptor ([35S]GTPγS binding); format: biochemical; details: for EC50: [35S]GTPγS binding, concentration at which half the activity of Emax was obtained; for Emax at 10 µM: agonist activity in the presence of 10 μM of compound, relative to 100 μmol/L 5-HT
Summary of the method: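 [35S]GTPγS binding read-out: after 60 min at room temperature with test compound in GDP buffer, human 5-HT1A receptor CHO membranes were vacuum-filtered and retained radioactivity scintillation-counted. Agonist activity calculated by formula.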

T1 sequence (P08908 whole entry): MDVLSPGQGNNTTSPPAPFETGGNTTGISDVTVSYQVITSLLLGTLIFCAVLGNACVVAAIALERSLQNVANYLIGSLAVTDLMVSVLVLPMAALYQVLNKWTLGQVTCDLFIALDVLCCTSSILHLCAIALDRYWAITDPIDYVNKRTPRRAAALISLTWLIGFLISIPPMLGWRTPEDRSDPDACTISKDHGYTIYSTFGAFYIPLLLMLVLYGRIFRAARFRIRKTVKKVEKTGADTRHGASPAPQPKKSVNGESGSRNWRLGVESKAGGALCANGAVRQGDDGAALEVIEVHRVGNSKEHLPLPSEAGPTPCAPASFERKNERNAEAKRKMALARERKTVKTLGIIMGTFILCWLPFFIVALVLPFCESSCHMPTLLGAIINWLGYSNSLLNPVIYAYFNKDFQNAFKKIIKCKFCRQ
human D2 receptor, sequence (P14416 whole entry): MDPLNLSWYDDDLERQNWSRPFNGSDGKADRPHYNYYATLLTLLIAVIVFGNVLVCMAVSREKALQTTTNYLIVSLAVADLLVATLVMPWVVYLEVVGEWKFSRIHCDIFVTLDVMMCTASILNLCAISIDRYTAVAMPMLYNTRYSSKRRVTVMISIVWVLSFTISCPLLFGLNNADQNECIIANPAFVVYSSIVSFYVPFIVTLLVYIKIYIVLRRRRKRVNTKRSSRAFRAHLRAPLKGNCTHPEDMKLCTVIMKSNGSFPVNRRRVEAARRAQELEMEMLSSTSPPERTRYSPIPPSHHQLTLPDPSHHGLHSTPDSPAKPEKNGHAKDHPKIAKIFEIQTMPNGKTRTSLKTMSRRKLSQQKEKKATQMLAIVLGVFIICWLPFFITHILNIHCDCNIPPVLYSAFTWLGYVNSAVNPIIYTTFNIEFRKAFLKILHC
hERG channel, sequence (Q12809 whole entry): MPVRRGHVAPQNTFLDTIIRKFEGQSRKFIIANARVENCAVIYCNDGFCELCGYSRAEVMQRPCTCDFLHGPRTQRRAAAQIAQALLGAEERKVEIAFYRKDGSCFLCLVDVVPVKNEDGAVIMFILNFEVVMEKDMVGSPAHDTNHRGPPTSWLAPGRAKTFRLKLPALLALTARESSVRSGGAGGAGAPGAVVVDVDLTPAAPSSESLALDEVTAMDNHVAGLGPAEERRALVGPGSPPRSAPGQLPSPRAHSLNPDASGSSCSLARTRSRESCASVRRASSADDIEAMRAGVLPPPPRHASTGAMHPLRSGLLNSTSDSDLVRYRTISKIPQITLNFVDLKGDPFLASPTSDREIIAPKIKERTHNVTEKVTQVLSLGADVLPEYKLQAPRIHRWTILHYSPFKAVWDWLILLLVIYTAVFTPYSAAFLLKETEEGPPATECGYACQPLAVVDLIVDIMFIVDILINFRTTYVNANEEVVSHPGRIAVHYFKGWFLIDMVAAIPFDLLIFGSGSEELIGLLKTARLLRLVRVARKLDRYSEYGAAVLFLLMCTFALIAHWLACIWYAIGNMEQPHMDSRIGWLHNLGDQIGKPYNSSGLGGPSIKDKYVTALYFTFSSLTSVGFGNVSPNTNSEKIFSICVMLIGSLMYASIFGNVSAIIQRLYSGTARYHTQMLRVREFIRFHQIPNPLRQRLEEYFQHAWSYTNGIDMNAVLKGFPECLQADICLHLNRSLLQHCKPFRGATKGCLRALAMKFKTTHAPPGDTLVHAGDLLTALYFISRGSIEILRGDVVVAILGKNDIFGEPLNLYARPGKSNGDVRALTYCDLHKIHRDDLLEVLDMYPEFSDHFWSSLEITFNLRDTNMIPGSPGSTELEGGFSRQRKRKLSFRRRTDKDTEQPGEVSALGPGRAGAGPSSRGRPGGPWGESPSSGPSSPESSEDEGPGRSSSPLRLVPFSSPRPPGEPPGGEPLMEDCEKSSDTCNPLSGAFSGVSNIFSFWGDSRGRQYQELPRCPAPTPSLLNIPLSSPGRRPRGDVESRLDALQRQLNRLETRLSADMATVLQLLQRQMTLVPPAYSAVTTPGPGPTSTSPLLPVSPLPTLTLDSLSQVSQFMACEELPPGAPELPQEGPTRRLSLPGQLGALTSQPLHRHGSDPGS

Row | Structure (SMILES) | IC50 (hERG channel) [nM] | Metabolic stability in human hepatic microsome [1] [mL/min/mg protein] | Ki (human D2 receptor) [nM] | Ki (human 5-HT1A receptor [2]) [nM] | EC50 (human 5-HT1A receptor [3]) [nM] | Emax at 10 µM (human 5-HT1A receptor [3]) [%]
1 | Cc1nc2c(o1)CCN(CCN1CCN(c3nsc4ccccc34)CC1)C2=O [Example 51] | 5100 | 0.074 | 993 | 0.23 | 2.08 | 61
2 | Cn1ncc2c1CCN(CCN1CCC(c3noc4ccccc34)CC1)C2=O [Example 130] | 1600 | <0.05 | 541 | 23.8 | 841 | 44
3 | O=C1c2cnc(C3CC3)nc2CCN1CCN1CCN(c2nsc3ccccc23)CC1 [Example 94] | 2300 | 0.368 | 236 | 5.24 | 79.4 | 53
4 | COc1cc2c(cn1)C(=O)N(CCN1CCC(c3noc4ccccc34)CC1)CC2 [Example 14] | 800 | <0.01 | 136 | 0.15 | 2.87 | 42
5 | O=C1c2nc[nH]c2CCN1CCN1CCC(c2noc3ccccc23)CC1 [Example 191, 5-{2-[4-(1,2-Benzoisoxazol-3-yl)piperidin-1-yl]ethyl}-6,7-dihydro[1,3]imidazolo[4,5-c]pyridin-4(5H)-one] | 2600 | <0.05 | 286 | 817 | 4260 | 14
6 | Cc1cc2c(cn1)C(=O)N(CCN1CCN(c3noc4ccccc34)CC1)CC21CC1 [Example 21] | 8000 | 0.323 | 2120 | 8.62 | 18 | 59
7 | Cc1nc(C)c2c(=O)n(CCN3CCC(c4noc5ccccc45)CC3)ccc2n1 [Example 114, 6-{2-[4-(1,2-Benzoisoxazol-3-yl)piperidin-1-yl]ethyl}-2,4-dimethylpyrido[4,3-d]pyrimidin-5(6H)-one] | 2700 | 0.102 | 309 | 11.3 | 43.8 | 64
8 | Cn1c(F)cc2c1CCN(CCN1CCN(c3nsc4ccccc34)CC1)C2=O [Example 112, 5-{2-[4-(1,2-Benzoisothiazol-3-yl)piperazin-1-yl]ethyl}-2-fluoro-1-methyl-1,5,6,7-tetrahydro-4H-pyrrolo[3,2-c]pyridin-4-one] | 2200 | 0.459 | 169 | 1.58 | 9.44 | 64
9 | CC1CN(CCN2CCC(c3noc4ccccc34)CC2)C(=O)c2ncccc21 (centres unmarked) [Example 15] | 1600 | 0.055 | 1560 | 0.51 | 7.32 | 57
10 | CCn1ncc2c1CCN(CCN1CCN(c3nsc4ccccc34)CC1)C2=O [Example 64] | 7700 | 0.064 | 430 | 17.4 | 191 | 69
11 | Cc1nc2c(o1)CCN(CCN1CCC(c3noc4ccccc34)CC1)C2=O [Example 39] | 1800 | 0.016 | 1860 | 0.84 | 9.06 | 61
12 | Cc1cc2c(cn1)C(=O)N(CCN1CCC(c3noc4ccccc34)CC1)CC2 [Example 135] | 700 | <0.05 | 62 | 1.4 | 6.14 | 54
13 | O=c1c2ncccc2ccn1CCN1CCN(c2noc3ccccc23)CC1 [Example 117] | 4400 | <0.05 | 1740 | 36.6 | 570 | 40
14 | CC1CN(CCN2CCN(c3nsc4ccccc34)CC2)C(=O)c2cnn(C)c21 (centres unmarked) [Example 77] | 4600 | 0.119 | 605 | 0.24 | 1.3 | 78
15 | Cn1cc2c(n1)CCCN(CCN1CCN(c3nsc4ccccc34)CC1)C2=O [Example 42] | 2400 | 0.100 | 119 | 2.19 | 23.5 | 57
16 | Cn1cnc2c1CCN(CCN1CCC(c3noc4ccccc34)CC1)C2=O [Example 16] | > 10000 | <0.01 | 34000 | 18.6 | 300 | 40
17 | Cc1ccc2c(n1)C(=O)N(CCN1CCN(c3noc4ccccc34)CC1)CC2 [Example 183] | > 3000 | <0.05 | > 10000 | 21.9 | 308 | 44
18 | O=C1c2ncccc2CCN1CCN1CCN(c2nsc3cc(F)ccc23)CC1 [Example 27] | 1300 | 0.048 | 230 | 6.04 | 55.4 | 58
19 | O=C1c2cnc(Br)cc2CCN1CCN1CCN(c2nsc3ccccc23)CC1 [Example 62] | 1500 | 0.505 | 222 | 0.1 | 1.01 | 62
20 | COc1ncc2c(n1)CCN(CCN1CCC(c3noc4ccccc34)CC1)C2=O [Example 176] | 1000 | <0.05 | 248 | 5.1 | 30.6 | 40
21 | [2H]C([2H])([2H])Oc1cc2c(cn1)C(=O)N(CCN1CCN(c3nsc4ccccc34)CC1)CC2([2H])[2H] [Example 107, 2-{2-[4-(1,2-Benzoisothiazol-3-yl)piperazin-1-yl]ethyl}-6-[(^2H3)methyloxy] (4,4-^2H2)-3,4-dihydro-2,7-naphthyridin-1(2H)-one] | 1700 | 0.210 | 244 | 0.08 | 7.67 | 64
22 | COc1ncc2c(n1)CCN(CCN1CCN(c3nsc4ccccc34)CC1)C2=O [Example 177] | 3700 | 0.095 | 237 | 5.63 |  | 36

From US10745401B2, “Condensed lactam derivative” (Sumitomo Dainippon Pharma Co., Ltd., priority 2018, dated 2020)
